The source of these data is publication PMC7285485, “Antifungal and Antibiofilm Activities and the Mechanism of Action of Repeating Lysine-Tryptophan Peptides against Candida albicans” (Microorganisms, 2020).

Like-named read-outs stand apart in the source and are kept apart here. Ends that are not written are not given here. Peptide text beside a SMILES is read from it. Where only a bound is given, the exact number is not on record here.

For one data set, the system named is C. melibiosica. As to the kind of experiment: microbe, parasite or virus in culture. In kind it is cell-based, Candida melibiosica. The settings on record: read-out: Minimum inhibitory concentration. The method, then:
(§1) The fungal strains C. albicans (KCTC 7270), C. catenulate (7642), C. intermidia (7234), C. rugosa (7324), C. glabrata (7219) and C. melibiosica (KCTC 7631) were cultured at 28 °C in appropriate media. Fungal cells (final concentration 2 × 10^4 cells/ mL) in 50 μL of YPD media (dextrose 2%, peptone 1% and yeast extract 0.5%) were seeded in each well of a microtiter plate containing 50 μL of two-fold serially diluted peptides in phosphate buffered saline. After incubation for 24 to 30 h at 28 °C, the lowest concentration of the peptides inhibiting the growth of the fungi was microscopically determined to be the minimum inhibitory concentrations (MICs). The effect of salt concentration on the antifungal activity of the peptides was tested by determining the MICs in the presence of NaCl and MgCl2. Fixed concentrations of NaCl (50, 100 and 150 mM) or MgCl2 (1, 2 and 5 mM) were added to the sodium phosphate buffer (pH 7.2). The effect of pH on the antifungal activity of the peptides was tested by determining peptide MICs in the presence of sodium phosphate buffer at a variety of pH values.

Data set [1] relates to C. albicans (CCARM 140020). Description: microbe, parasite or virus in culture. The data set is classed as cell-based, Candida albicans. The settings on record: read-out: Minimum Inhibitory Concentrations.
The subject of the next data set is C. intermedia. Description: microbe, parasite or virus in culture. The data set is classed as cell-based, Candida intermedia. The settings on record: read-out: Minimum inhibitory concentration. The method, then:
as §1

The next data set relates to C. rugosa. As to the kind of experiment: microbe, parasite or virus in culture. The data set is classed as cell-based, Candida rugosa. To be noted: read-out: Minimum inhibitory concentration. The method, then: as §1
Another data set has as its system C. albicans (KCTC 7270). As to the kind of experiment: microbe, parasite or virus in culture. In kind it is cell-based, Candida albicans. To be noted: Candida albicans, KCTC7270, 2 × 10^4 cells/mL, YPD/PBS, 24 to 30 h, 28 °C, read-out: Minimum Inhibitory Concentrations. The method, then:
as §1

In data set [2] the test system is C. albicans (CCARM 14007). As to the kind of experiment: microbe, parasite or virus in culture. The settings on record: read-out: Minimum Inhibitory Concentrations. In kind it is cell-based, Candida albicans.
The test system of a further data set is C. glabrata. As to the kind of experiment: microbe, parasite or virus in culture. The data set is classed as cell-based, Candida glabrata. To be noted: read-out: Minimum inhibitory concentration. The method, then:
as §1

A further data set has as its system C. catenulate. As to the kind of experiment: microbe, parasite or virus in culture. The settings on record: read-out: Minimum inhibitory concentration. The data set is classed as cell-based, Candida catenulate. The method, then:
as §1

In data set [3] the test system is C. albicans (CCARM 14001). Description: microbe, parasite or virus in culture. In kind it is cell-based, Candida albicans. To be noted: fluconazole-resistant strain CCARM 14001, 24 to 30 h, 28 °C, read-out: Minimum Inhibitory Concentrations.
The next data set deals with red blood cells. To be noted: ref [35], cited from earlier work; for Hemolysis: red blood cells, 200 µM peptide. An excerpt: Furthermore, it maintained its antifungal activity in physiological salt concentrations and at low pH values.
Data set [4] deals with RNA obtained from C. albicans. As to the kind of experiment: RNA gel retardation assay. The settings on record: Supplementary Figure S2. The data set is classed as binding, Candida albicans. The method, then:
Briefly, RNA was extracted from C. albicans using the TRI reagent (Molecular Research Center, Cincinnati, OH, USA) according to the manufacturer’s instructions. Purified RNA was collected and resuspended in RNAse-free water. Then, the yeast RNA (10 µg) was mixed with peptide at different concentrations, 2.5–30 µg in 15 µL of 10 mM Tris, 1 mM EDTA buffer (pH 8.0). After 10 min incubation at room temperature, the solution was subjected to electrophoresis on a 1% agarose gel in Tris Borate EDTA (TBE) buffer. Gel retardation was visualized under UV illumination using a Bio-Rad Gel Documentation system.

Regarding `OC(Cn1cncn1)(Cn1cncn1)c1ccc(F)cc1F` [Fluconazole, fluconazole, reference compound], the MIC was 16 µM in the data set on C. melibiosica (Helenozyma melibiosica, C. melibiosica); more than 128 µM in data set [1] (Candida albicans, CCARM140020, fluconazole-resistant strain CCARM 140020, 24 to 30 h, 28 °C); 16 µM in the data set with C. intermedia (Sungouiella intermedia, C. intermedia); 16 µM in the data set on C. rugosa (Diutina rugosa, C. rugosa); 16 µM in the data set on C. albicans (KCTC 7270); more than 128 µM in data set [2] (Candida albicans, CCARM14007, fluconazole-resistant strain CCARM 14007, 24 to 30 h, 28 °C). Also, the MIC was 8 µM in the data set with C. glabrata (Nakaseomyces glabratus, C. glabrata); 16 µM in the data set with C. catenulate (Candida, C. catenulate); more than 128 µM in data set [3] (Candida albicans, CCARM14001).

Take `NCCCC[C@H](NC(=O)[C@H](Cc1c[nH]c2ccccc12)NC(=O)[C@@H](N)CCCCN)C(=O)N[C@@H](Cc1c[nH]c2ccccc12)C(N)=O` [KW2, KWKW-NH2] (H-KWKW-NH2): the MIC (in the data set on C. melibiosica; in the data set on C. intermedia; in the data set with C. rugosa; in the data set with C. glabrata; with C. catenulate; in data set [3]) was more than 128 µM in each case. For the same molecule, the Hemolysis in the data set on red blood cells is reported as 0%.

Turning to KWKWKW-NH2 [KW3, KWKWKW-NH2], the MIC is 32 µM in the data set on C. melibiosica; 32 µM with C. intermedia; 32 µM in the data set on C. rugosa; 32 µM in the data set on C. glabrata; 16 µM in the data set with C. catenulate; more than 128 µM in [3]. In addition, the Hemolysis with red blood cells is 0%.

On to KWKWKWKW-NH2 [KW4], for which the MIC in the data set with C. melibiosica is on record as 8 µM; in data set [1] (CCARM 140020), 32 µM; in the data set with C. intermedia, 8 µM; with C. rugosa it was 8 µM; in [2] (CCARM 14007), 32 µM; with C. glabrata, 8 µM. Further, the MIC was 8 µM in the data set with C. catenulate and 32 µM in [3]. The Hemolysis in the data set on red blood cells is listed as 8%. The “Hemolytic activity” value in the data set with red blood cells is on record as “no hemolytic activity”.

As to KWKWKWKWKW-NH2 [KW5], the MIC is on record as 8 µM in the data set with C. melibiosica; 8 µM in data set [1] (CCARM 140020); 8 µM in the data set with C. intermedia; 8 µM in the data set with C. rugosa; 16 µM in [2] (CCARM 14007); 4 µM in the data set with C. glabrata. Further, the MIC (with C. catenulate; in data set [3]) was 8 µM each time. Further, the Hemolysis in the data set with red blood cells is recorded as 71%.

Turning to “indolicidin (ILPWKWPWWPWRR; ends and bridges not checked; UniProt P33046 131-143, looked up) [AMP which can act intracellularly]”, in [4], the “RNA band shift in gel retardation” value is given as “did cause a similar band shift”.

magainin II: the “RNA band shift in gel retardation” value in data set [4] is “did not cause a band shift”.
